# Data: patent publication US10526316B2, “Quinoxaline and pyridopyrazine derivatives as PI3Kβ inhibitors” (Janssen Pharmaceutica NV, priority 2015, dated 2020)
# Read-outs that look alike come from different tables or passages of the source.
# What was measured:
# [1] = system: Akt phosphorylated at Ser473 in PC-3 cells; assay: Cellular assay: phosphorylation of Akt at Ser473 in PC-3 cells (MSD ELISA); type: cell-based; settings: PC-3 cells, 60 min compound incubation, MSD ELISA, read-out: IC50 pAkt_S473
# How it was run: (§1)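 Electrochemiluminescent sandwich ELISA read-out: phospho-specific capture (Ser473 or Thr308), Sulfo-tag anti-total Akt detection, signal proportional to phospho-Akt. Cells treated 60 min at 37° C with compound, DMSO 0.3%. IC50 fitted from five concentrations.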
# [2] = system: Akt phosphorylated at Thr308 in PC-3 cells; assay: Cellular assay: phosphorylation of Akt at Thr308 in PC-3 cells (MSD ELISA); type: cell-based; settings: PC-3 cells, 60 min compound incubation, MSD ELISA, read-out: IC50 pAkt_Thr308
# How it was run: as §1
# kinase enzymes [3] = target: T1, kinase enzymes (Homo sapiens, UniProt P48736); assay: Enzyme binding assay (KINOMEscan, DiscoveRx), further kinases of Table A; settings: PIK3Cγ_h
# T1 construct: purchased DiscoveRx Corporation, San Diego (contract service, KINOMEscan)
# T1 sequence (P48736 whole entry): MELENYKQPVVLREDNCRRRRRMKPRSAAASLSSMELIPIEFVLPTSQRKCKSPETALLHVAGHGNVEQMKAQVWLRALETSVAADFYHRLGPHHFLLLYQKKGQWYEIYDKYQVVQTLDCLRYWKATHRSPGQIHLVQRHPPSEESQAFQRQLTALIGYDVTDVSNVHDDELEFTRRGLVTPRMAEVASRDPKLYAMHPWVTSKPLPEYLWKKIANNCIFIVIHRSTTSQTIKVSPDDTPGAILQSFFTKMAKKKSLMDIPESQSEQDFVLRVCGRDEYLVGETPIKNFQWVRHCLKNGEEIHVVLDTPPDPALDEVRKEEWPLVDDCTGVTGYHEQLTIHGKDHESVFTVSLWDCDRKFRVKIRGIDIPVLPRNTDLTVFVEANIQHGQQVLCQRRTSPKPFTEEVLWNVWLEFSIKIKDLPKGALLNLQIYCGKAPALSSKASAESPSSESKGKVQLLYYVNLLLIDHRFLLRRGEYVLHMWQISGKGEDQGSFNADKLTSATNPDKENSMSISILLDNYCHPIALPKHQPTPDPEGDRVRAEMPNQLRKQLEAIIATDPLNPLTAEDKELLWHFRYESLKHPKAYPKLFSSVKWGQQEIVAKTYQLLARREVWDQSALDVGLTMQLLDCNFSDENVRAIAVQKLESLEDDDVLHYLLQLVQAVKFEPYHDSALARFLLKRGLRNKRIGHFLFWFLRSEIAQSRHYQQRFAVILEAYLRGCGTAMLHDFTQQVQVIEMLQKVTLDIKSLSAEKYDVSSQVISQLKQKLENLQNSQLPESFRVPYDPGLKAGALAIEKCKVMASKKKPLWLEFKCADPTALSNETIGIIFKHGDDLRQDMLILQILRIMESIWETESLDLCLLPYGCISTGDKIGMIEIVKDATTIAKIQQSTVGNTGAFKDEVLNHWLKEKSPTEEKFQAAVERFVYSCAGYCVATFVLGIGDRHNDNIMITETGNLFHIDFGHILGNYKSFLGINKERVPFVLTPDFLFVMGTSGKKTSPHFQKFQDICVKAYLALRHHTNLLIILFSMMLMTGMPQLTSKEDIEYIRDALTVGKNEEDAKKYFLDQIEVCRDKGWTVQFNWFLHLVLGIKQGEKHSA
# How it was run: (§2)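 Binding affinities were measured on the KINOMEscan platform.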
# kinase enzymes [4] = target: T2, kinase enzymes (Homo sapiens, UniProt P42345); assay: as above; settings: MTOR_h
# T2 construct: purchased DiscoveRx Corporation, San Diego (contract service, KINOMEscan)
# How it was run: as §2
# kinase enzymes [5] = target: T3, kinase enzymes (Homo sapiens, UniProt P42336); assay: as above; settings: PIK3Cα_h
# T3 construct: purchased DiscoveRx Corporation, San Diego (contract service, KINOMEscan)
# T3 sequence (P42336 whole entry): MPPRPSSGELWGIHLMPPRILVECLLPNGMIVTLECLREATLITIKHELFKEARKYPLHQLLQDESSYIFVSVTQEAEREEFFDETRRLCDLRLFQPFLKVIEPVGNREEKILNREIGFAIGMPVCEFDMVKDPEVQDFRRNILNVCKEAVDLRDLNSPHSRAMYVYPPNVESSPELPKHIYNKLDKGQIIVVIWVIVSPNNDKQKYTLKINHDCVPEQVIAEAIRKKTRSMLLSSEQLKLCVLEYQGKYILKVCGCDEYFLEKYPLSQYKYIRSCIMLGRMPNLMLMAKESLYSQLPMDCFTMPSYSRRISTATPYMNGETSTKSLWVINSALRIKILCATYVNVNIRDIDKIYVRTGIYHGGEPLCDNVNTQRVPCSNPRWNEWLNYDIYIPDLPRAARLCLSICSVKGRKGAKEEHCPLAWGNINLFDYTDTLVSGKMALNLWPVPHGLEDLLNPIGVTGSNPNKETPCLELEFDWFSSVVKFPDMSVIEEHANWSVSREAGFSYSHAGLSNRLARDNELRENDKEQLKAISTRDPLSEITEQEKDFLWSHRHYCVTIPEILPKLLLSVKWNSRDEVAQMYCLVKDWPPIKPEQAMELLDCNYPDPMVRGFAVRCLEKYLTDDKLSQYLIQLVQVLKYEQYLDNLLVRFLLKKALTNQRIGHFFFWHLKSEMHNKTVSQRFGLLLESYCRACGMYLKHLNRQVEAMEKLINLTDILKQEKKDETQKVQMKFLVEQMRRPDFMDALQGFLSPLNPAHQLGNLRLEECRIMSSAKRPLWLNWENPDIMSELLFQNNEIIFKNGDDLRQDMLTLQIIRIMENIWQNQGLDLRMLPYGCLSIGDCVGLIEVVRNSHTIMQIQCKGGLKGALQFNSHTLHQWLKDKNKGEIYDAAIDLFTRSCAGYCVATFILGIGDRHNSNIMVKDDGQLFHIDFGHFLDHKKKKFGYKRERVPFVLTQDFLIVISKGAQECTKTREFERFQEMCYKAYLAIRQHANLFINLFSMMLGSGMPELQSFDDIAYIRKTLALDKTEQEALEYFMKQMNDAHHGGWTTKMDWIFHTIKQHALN
# How it was run: as §2
# PI3Kβ = target: T4, PI3Kβ (Homo sapiens, UniProt P42338); assay: Enzyme binding assay (KINOMEscan, DiscoveRx); settings: PIK3Cβ_h, read-out: Kd PIK3Cβ_h
# T4 construct: purchased DiscoveRx Corporation, San Diego (contract service, KINOMEscan)
# T4 sequence (P42338 whole entry): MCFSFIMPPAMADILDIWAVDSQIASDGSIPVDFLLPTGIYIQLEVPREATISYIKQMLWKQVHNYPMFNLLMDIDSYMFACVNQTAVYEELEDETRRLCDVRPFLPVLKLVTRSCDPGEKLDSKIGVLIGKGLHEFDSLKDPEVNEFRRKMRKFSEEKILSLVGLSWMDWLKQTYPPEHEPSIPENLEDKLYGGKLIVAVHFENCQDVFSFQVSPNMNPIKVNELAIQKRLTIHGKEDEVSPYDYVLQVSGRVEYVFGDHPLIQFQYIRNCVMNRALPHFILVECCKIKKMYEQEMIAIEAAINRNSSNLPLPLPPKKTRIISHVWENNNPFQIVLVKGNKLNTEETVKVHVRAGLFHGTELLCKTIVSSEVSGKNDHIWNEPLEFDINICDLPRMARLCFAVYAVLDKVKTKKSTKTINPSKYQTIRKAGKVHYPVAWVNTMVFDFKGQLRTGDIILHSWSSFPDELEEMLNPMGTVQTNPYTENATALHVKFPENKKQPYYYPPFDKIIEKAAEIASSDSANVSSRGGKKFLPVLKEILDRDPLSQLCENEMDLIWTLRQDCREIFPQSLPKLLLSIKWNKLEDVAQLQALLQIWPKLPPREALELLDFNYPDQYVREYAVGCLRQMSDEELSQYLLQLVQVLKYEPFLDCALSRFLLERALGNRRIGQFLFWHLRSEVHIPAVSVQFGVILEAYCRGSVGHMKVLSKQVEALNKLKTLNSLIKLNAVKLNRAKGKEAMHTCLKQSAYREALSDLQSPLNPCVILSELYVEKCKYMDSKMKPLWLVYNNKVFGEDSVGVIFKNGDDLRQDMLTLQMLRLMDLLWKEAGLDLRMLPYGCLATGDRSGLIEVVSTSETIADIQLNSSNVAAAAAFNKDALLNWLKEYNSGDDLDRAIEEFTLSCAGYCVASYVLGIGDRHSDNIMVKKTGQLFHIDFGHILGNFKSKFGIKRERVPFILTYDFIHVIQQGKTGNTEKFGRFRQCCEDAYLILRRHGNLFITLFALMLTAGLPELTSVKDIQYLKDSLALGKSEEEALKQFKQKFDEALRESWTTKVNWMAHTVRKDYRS
# How it was run: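 Kinase binding affinities were measured with KINOMEscan technology. Results are given as Kd, the inhibitor binding constant, in nM.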
# PI3Kδ = target: T5, PI3Kδ (Homo sapiens, UniProt O00329); assay: Enzyme binding assay (KINOMEscan, DiscoveRx); settings: PIK3Cδ_h
# T5 construct: purchased DiscoveRx Corporation, San Diego (contract service, KINOMEscan)
# T5 sequence (O00329 1-1044): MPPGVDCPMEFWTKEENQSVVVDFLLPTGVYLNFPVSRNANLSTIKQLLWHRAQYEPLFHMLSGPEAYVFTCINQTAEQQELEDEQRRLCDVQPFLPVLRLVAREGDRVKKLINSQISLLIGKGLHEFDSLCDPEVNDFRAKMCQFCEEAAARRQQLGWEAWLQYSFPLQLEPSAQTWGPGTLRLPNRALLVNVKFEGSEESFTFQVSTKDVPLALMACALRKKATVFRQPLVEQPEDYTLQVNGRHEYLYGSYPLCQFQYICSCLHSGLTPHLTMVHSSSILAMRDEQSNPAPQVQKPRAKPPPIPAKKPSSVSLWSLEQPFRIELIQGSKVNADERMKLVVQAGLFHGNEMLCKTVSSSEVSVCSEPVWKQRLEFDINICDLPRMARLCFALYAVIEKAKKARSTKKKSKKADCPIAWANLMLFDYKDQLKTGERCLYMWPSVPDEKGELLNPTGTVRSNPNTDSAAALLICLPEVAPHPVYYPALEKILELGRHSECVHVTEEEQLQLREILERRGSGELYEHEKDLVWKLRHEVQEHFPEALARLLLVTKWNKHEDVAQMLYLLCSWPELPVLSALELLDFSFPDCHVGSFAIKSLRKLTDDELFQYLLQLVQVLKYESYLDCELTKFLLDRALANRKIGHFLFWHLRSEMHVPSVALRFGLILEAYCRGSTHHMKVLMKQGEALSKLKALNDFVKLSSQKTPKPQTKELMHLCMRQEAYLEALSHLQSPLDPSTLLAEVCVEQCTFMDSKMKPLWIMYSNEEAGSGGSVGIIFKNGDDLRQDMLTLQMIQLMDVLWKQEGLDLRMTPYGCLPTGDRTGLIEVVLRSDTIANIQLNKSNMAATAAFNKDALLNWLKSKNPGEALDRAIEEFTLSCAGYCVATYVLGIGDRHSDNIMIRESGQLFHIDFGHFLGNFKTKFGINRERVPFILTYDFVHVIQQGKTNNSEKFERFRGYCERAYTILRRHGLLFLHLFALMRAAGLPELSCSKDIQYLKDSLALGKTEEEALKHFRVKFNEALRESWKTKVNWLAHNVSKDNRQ
# How it was run: as §2
"IC50 ([1]; Homo sapiens, PC-3, 1 h)","IC50 ([2]; Homo sapiens, PC-3, 1 h)",melting point,Kd (kinase enzymes [3]),Kd (kinase enzymes [4]),Kd (kinase enzymes [5]),Kd (PI3Kβ),Kd (PI3Kδ),IC50 [1],IC50 [2],SMILES
479 nM,> 513 nM,80 °C,25100 nM,> 30200 nM,14800 nM,5130 nM,15800 nM,–,–,"CC(c1cc(C(=O)N(C)C)cc2ncc(N3CCOCC3)nc12)N(C)c1cccc(Cl)c1 (single isomer, unassigned) [Compound 140]"
–,–,118 °C,6610 nM,21400 nM,1660 nM,5 nM,912 nM,98 nM,44 nM,"COCCNC(=O)c1cc(C(C)Nc2cc(F)cc(F)c2)c2nc(N3CCOCC3)cnc2c1 (single isomer, unassigned) [Compound 203]"
–,–,80 °C,501 nM,> 30200 nM,138 nM,0.1 nM,9 nM,1 nM,1 nM,"CNCCN(C)C(=O)c1cc(C(C)Nc2cc(F)cc(F)c2)c2nc(N3CCOCC3)cnc2c1 (single isomer, unassigned) [Compound 137]"
~275 nM,158 nM,164 °C,11200 nM,> 30200 nM,5130 nM,6 nM,427 nM,–,–,CC(Nc1ccc(F)c(F)c1)c1cc(C(=O)NCCCO)cc2ncc(N3CCOCC3)nc12 (stereo not drawn) [Compound 280]
–,–,98 °C,12900 nM,> 30200 nM,12300 nM,37 nM,4680 nM,> 513 nM,> 513 nM,"Fc1cc(F)cc(N2CCCC2c2cncc3ncc(N4CCOCC4)nc23)c1 (single isomer, unassigned) [Compound 25]"
> 513 nM,> 513 nM,130 °C,> 30200 nM,> 30200 nM,> 30200 nM,1260 nM,> 30200 nM,–,–,"CC(Nc1cc(F)cc(F)c1)c1cc(C(=O)N2CCN(CC(F)(F)F)CC2)cc2ncc(N3CCOCC3)nc12 (single isomer, unassigned) [Compound 172]"
178 nM,65 nM,184 °C,5130 nM,15100 nM,2340 nM,3 nM,355 nM,–,–,CC1CN(c2cnc3cc(C(=O)N(C)C)cc(C(C)Nc4cccc(F)c4)c3n2)CCO1 (stereo not drawn) [Compound 136]
–,–,124 °C,6310 nM,22900 nM,6030 nM,42 nM,1780 nM,> 513 nM,> 513 nM,"CC(Nc1ccc(F)c(F)c1)c1cc(C(=O)NCC2CCCN2)cc2ncc(N3CCOCC3)nc12 (single isomer, unassigned) [Compound 329b]"
> 513 nM,> 513 nM,115 °C,1380 nM,6760 nM,437 nM,11 nM,1230 nM,–,–,"CC(Nc1cccc(F)c1)c1cc(C(=O)NCC(=O)O)cc2ncc(N3CCOCC3)nc12 (single isomer, unassigned) [Compound 393a]"
4 nM,3 nM,189 °C,336 nM,> 30200 nM,142 nM,0.5 nM,74 nM,–,–,OCc1cc(C2CCCN2c2cc(F)cc(F)c2)c2nc(N3CCOCC3)cnc2c1 (stereo not drawn) [Compound 10]
31 nM,11 nM,140 °C,229 nM,> 10000 nM,174 nM,0.2 nM,36 nM,–,–,OCCNCc1cc(C2CCCN2c2cc(F)cc(F)c2)c2nc(N3CCOCC3)cnc2c1 (stereo not drawn) [Compound 14]
513 nM,91 nM,150 °C,> 30200 nM,> 30200 nM,> 30200 nM,17 nM,5010 nM,–,–,Cc1c(F)cccc1NCc1cc(C(=O)N(C)C)cc2ncc(N3CCOCC3)nc12 [Compound 382]
